Data: US9873667B2, “Arylsulfanyl compounds and compositions for delivering active agents” (EMISPHERE TECHNOLOGIES INC., priority 2006, dated 2018)

system: not given; experiment: not given; conditions: not given

Structure (SMILES)	melting point
O=C(O)CCCCCCCSc1ccc(Cl)cc1 [Compound 33, 8-(4-Chloro-phenylsulfanyl)-octanoic acid]	92 to 93 °C
COc1ccc(SCCCCCCCC(=O)O)cc1 [Compound 10, 8-(4-Methoxy-phenylsulfanyl)-octanoic acid]	66 to 68 °C
Cc1ccc(C)c(SCCC(=O)O)c1 [Compound 9, 3-(2,5-Dimethyl-phenylsulfanyl)-propionic acid]	100 to 102 °C

system: Blood glucose levels; experiment: Oral delivery of insulin with delivery agent compound; blood glucose by glucometer; type: in vivo, male Sprague-Dawley rats; conditions: insulin titration; Delivery Agent 200 mg/kg; Dose of Insulin 0.00 mg/kg
Experimental: Insulin stock solution (15 mg/ml) (Human zinc insulin, Calbiochem-Novabiochem Corp., La Jolla, Calif.) was prepared with deionized water. Oral dosing compositions containing 200 mg/kg of delivery agent compound and 0.5 mg/kg of insulin in aqueous solution were prepared with the delivery agent compound shown in Table 1 below. Either the sodium salt of the delivery agent compound was used or the free acid was converted to the sodium salt with one equivalent of sodium hydroxide.
The dosing solution was administered to fasted male Sprague-Dawley rats by oral gavage with an average weight of about 225-250 grams. Blood glucose levels were then determined by glucometer (One Touch Ultra®, LifeScan, Inc.) and compared to vehicle control (1 ml/kg of water). Samples were collected prior to dosing (time 0) and at 15, 30, 45 and 60 minutes after dosing. The % glucose reduction values in Table 1 are values found at the C minimum, and are an average % reduction with respect to the number of times the experiment was run for each delivery agent.
0.5 mg/kg of Insulin and 25-100 mg/kg of delivery agent compound (particular amount shown in Table 2 below) was administered to male Sprague-Dawley rats with an average weight of about 225-250 grams. The purpose of this test was to ascertain the dose response of the delivery agent compound. Glucose reduction was determined as set forth in connection with the data in Table 1.
Insulin Titrations were performed with Delivery Agent 29 in order to gauge the effect of varying dosages of insulin.

Structure (SMILES)	% Glucose Reduction
O=C(O)CCCSc1cccc(Cl)c1 [Compound 29, 4-(3-Chloro-phenylsulfanyl)-butyric acid]	−6.8%

same assay, conditions: insulin titration; Delivery Agent 200 mg/kg; Dose of Insulin 0.25 mg/kg

Structure (SMILES)	% Glucose Reduction
O=C(O)CCCSc1cccc(Cl)c1 [Compound 29, 4-(3-Chloro-phenylsulfanyl)-butyric acid]	−31.4%

same assay, conditions: insulin titration; Delivery Agent 200 mg/kg; Dose of Insulin 0.50 mg/kg

Structure (SMILES)	% Glucose Reduction
O=C(O)CCCSc1cccc(Cl)c1 [Compound 29, 4-(3-Chloro-phenylsulfanyl)-butyric acid]	−30.8%

same assay, conditions: oral gavage; 200 mg/kg Delivery Agent Compound; 0.5 mg/kg Insulin; value at C minimum vs vehicle control

Structure (SMILES)	% Glucose Reduction
COc1ccc(SCC(=O)O)cc1 [Compound 13, (4-Methoxy-phenylsulfanyl)-acetic acid]	−18.2 ± 17.4%
O=C(O)CSc1ccc(Cl)c(Cl)c1 [Compound 42, (3,4-dichloro-phenylsulfanyl)-acetic acid]	−22.1 ± 5.4%
O=C(O)CCCCSc1ccccc1Cl [Compound 25, 5-(2-Chloro-phenylsulfanyl)-pentanoic acid]	−16.0 ± 13.4%
O=C(O)CCCCCSc1cccc(Cl)c1 [Compound 32, 6-(3-Chloro-phenylsulfanyl)-hexanoic acid]	−15.2 ± 28.9%
COc1cccc(SCCCCCCCC(=O)O)c1 [Compound 22]	−3.7 ± 9.4%
O=C(O)CCCCCSc1ccc(F)cc1 [Compound 57, 6-(4-Fluoro-phenylsulfanyl)-hexanoic acid]	−11.0 ± 15.7%
O=C(O)CCCSc1ccccc1F [Compound 54, 4-(2-Fluoro-phenylsulfanyl)-butyric acid]	−37.4 ± 26.0%
O=C(O)CSc1ccc(F)cc1 [Compound 55, (4-Fluoro-phenylsulfanyl)-acetic acid]	−20.9 ± 17.5%
COc1ccccc1SCCCCC(=O)O [Compound 19, 5-(2-Methoxy-phenylsulfanyl)-pentanoic acid]	−33.6 ± 32.4%
O=C(O)CSc1cccc(O)c1 [Compound 46, (3-Hydroxy-phenylsulfanyl)-acetic acid]	0.3 ± 27.7%
COc1ccccc1SCCCCCCC(=O)O [Compound 16, 7-(2-Methoxy-phenylsulfanyl)-heptanoic acid]	−38.9 ± 32.7%
O=C(O)CCCSc1ccc(F)cc1 [Compound 56]	−4.5 ± 11.1%
O=C(O)CCCSc1ccc(Cl)c(Cl)c1 [Compound 53, 4-(3,4-dichloro-phenylsulfanyl)-butyric acid]	−14.8 ± 7.0%
O=C(O)CSc1cccc(F)c1 [Compound 51, (3-Fluoro-phenylsulfanyl)-acetic acid]	−24.9 ± 6.2%
O=C(O)CCSc1cccc(Cl)c1 [Compound 45, 3-(3-Chloro-phenylsulfanyl)-propionic acid]	−6.5 ± 21.2%
O=C(O)CCCCSc1cccc(Cl)c1 [Compound 24, 5-(3-Chloro-phenylsulfanyl)-pentanoic acid]	−10.0 ± 17.7%
O=C(O)CCCSc1cc(Cl)ccc1Cl [Compound 50, 4-(2,5-dichloro-phenylsulfanyl)-butyric acid]	−15.8 ± 10.6%
COc1cccc(SCCCCCC(=O)O)c1 [Compound 21, 6-(3-Methoxy-phenylsulfanyl)-hexanoic acid]	−19.4 ± 6.6%
O=C(O)CSc1cc(Cl)ccc1Cl [Compound 40, (2,5-dichloro-phenylsulfanyl)-acetic acid]	−6.0 ± 17.5%
O=C(O)CCSc1ccccc1Cl [Compound 44, 3-(2-Chloro-phenylsulfanyl)-propionic acid]	−7.8 ± 16.5%
COc1cccc(SCCCCCCCCCC(=O)O)c1 [Compound 20, 10-(3-Methoxy-phenylsulfanyl)-decanoic acid]	−33.9 ± 41.8%
COc1cccc(SCCCC(=O)O)c1 [Compound 27, 4-(3-Methoxy-phenylsulfanyl)-butyric acid]	−47.6 ± 17.4%
